This passage reports T/C results from PubChem BioAssay AID222 (DTP/NCI, 2004).

The structures appear in SMILES notation. Several values for one entry are separate records, joined by “and”; a condition that tells them apart may be missing. Equal entries are not always repeated. Toxic doses and inconclusive results are not listed.

The subject of the test is C57BL/6 mice, intracerebral ependymoblastoma, median survival T/C. Put plainly: NCI In Vivo Anticancer Drug Screen. Data for tumor model Ependymoblastoma (intracerebral) in C57BL/6 mice. The note with it: endpoint: median survival time, higher = longer survival. The protocol: The antitumor activity of compounds was measured in mice bearing transplantable tumors. Survival or tumor size were measured and the results are expressed as the measurement made in the treated group (T) divided by the measurement made in the vehicle treated control group (C). The tumor model used in this assay is Ependymoblastoma (intracerebral) in C57BL/6 mice

Where [1] appears, read: dose: 8.0 mg/kg/injection, schedule: Q01DX005 (ip), vehicle: Klucel (hydroxypropylcellulose) (HPC).
Setting [2] is: dose: 16.0 mg/kg/injection, schedule: Q01DX005 (ip), vehicle: Klucel (hydroxypropylcellulose) (HPC).
Where [3] appears, read: dose: 32.0 mg/kg/injection, schedule: Q01DX005 (ip), vehicle: Klucel (hydroxypropylcellulose) (HPC).
Setting [4] is: dose: 64.0 mg/kg/injection, schedule: Q01DX005 (ip), vehicle: Klucel (hydroxypropylcellulose) (HPC).
[5] abbreviates: dose: 4.0 mg/kg/injection, schedule: Q01DX005 (ip), vehicle: Klucel (hydroxypropylcellulose) (HPC).
The mark [6] stands for this setting: dose: 8.0 mg/kg/injection, schedule: Q01DX005 (ip), vehicle: saline with Tween-80.
[7] abbreviates: dose: 16.0 mg/kg/injection, schedule: Q01DX005 (ip), vehicle: saline with Tween-80.
[8] abbreviates: dose: 32.0 mg/kg/injection, schedule: Q01DX005 (ip), vehicle: saline with Tween-80.
Setting [9] is: dose: 32.0 mg/kg/injection, schedule: Q01DX005 (ip), vehicle: saline.
Where [10] appears, read: dose: 64.0 mg/kg/injection, schedule: Q01DX005 (ip), vehicle: saline with Tween-80.
The mark [11] stands for this setting: dose: 64.0 mg/kg/injection, schedule: Q01DX005 (ip), vehicle: saline.
Where [12] appears, read: dose: 128.0 mg/kg/injection, schedule: Q01DX005 (ip), vehicle: saline.
Setting [13] is: dose: 128.0 mg/kg/injection, schedule: Q01DX005 (ip), vehicle: saline with Tween-80.

Consider `CCOC(=O)CC(SP(=S)(OC)OC)C(=O)OCC` (centres undefined), for which the T/C runs as follows: (dose: 24.0 mg/kg/injection, schedule: Q01DX005 (ip), vehicle: saline with Tween-80) 101 % of control and 104 % of control; (dose: 45.0 mg/kg/injection, schedule: Q01DX005 (ip), vehicle: saline with Tween-80) 101 % of control and 108 % of control; (dose: 50.0 mg/kg/injection, schedule: Q01DX005 (ip), vehicle: suspension in saline) 102 % of control; (dose: 90.0 mg/kg/injection, schedule: Q01DX005 (ip), vehicle: saline with Tween-80) 95 % of control and 116 % of control; (dose: 100.0 mg/kg/injection, schedule: Q01DX005 (ip), vehicle: suspension in saline) 103 % of control; (dose: 180.0 mg/kg/injection, schedule: Q01DX005 (ip), vehicle: saline with Tween-80) 104 % of control. Further, for the setting “dose: 200.0 mg/kg/injection, schedule: Q01DX005 (ip), vehicle: suspension in saline”, the T/C is 99 % of control.

Consider `CCN(CC)CCOc1ccc(/C(=C(\Cl)c2ccccc2)c2ccccc2)cc1`, for which the T/C was 97 % of control and 99 % of control under setting [1]; 97 % of control and 108 % of control under setting [2]; 95 % of control and 112 % of control under setting [3]; 101 % of control (dose: 32.0 mg/kg/injection, schedule: Q01DX005 (oral), vehicle: Klucel (hydroxypropylcellulose) (HPC)); 88 % of control and 95 % of control under setting [4]; 104 % of control (dose: 64.0 mg/kg/injection, schedule: Q01DX005 (oral), vehicle: Klucel (hydroxypropylcellulose) (HPC)). Further, the T/C (dose: 128.0 mg/kg/injection, schedule: Q01DX005 (oral), vehicle: Klucel (hydroxypropylcellulose) (HPC)) was 96 % of control.

Take `CC1CCC(NC(=O)N(CCCl)N=O)CC1` (centres undefined): the T/C by setting is: (dose: 8.0 mg/kg/injection, schedule: Q01DX001 (ip), vehicle: saline with Tween-80) 99 % of control; (dose: 8.0 mg/kg/injection, schedule: Q01DX005 (oral), vehicle: Klucel (hydroxypropylcellulose) (HPC)) 156 % of control; (dose: 16.0 mg/kg/injection, schedule: Q01DX001 (ip), vehicle: saline with Tween-80) 114 % of control; (dose: 16.0 mg/kg/injection, schedule: Q01DX005 (oral), vehicle: Klucel (hydroxypropylcellulose) (HPC)) 151 % of control; (dose: 32.0 mg/kg/injection, schedule: Q01DX001 (ip), vehicle: saline with Tween-80) 109 % of control; (dose: 32.0 mg/kg/injection, schedule: Q01DX001 (oral), vehicle: Klucel (hydroxypropylcellulose) (HPC)) 97 % of control. The T/C (dose: 64.0 mg/kg/injection, schedule: Q01DX001 (ip), vehicle: saline with Tween-80) is 95 % of control and 109 % of control; the T/C (dose: 64.0 mg/kg/injection, schedule: Q01DX001 (oral), vehicle: Klucel (hydroxypropylcellulose) (HPC)) was 102 % of control; the T/C (dose: 128.0 mg/kg/injection, schedule: Q01DX001 (ip), vehicle: saline with Tween-80) was 98 % of control and 102 % of control; the T/C (dose: 128.0 mg/kg/injection, schedule: Q01DX001 (oral), vehicle: Klucel (hydroxypropylcellulose) (HPC)) is 102 % of control; the T/C (dose: 256.0 mg/kg/injection, schedule: Q01DX001 (ip), vehicle: saline with Tween-80) was 97 % of control; the T/C (dose: 256.0 mg/kg/injection, schedule: Q01DX001 (oral), vehicle: Klucel (hydroxypropylcellulose) (HPC)) was 95 % of control. In addition, the T/C (dose: 512.0 mg/kg/injection, schedule: Q01DX001 (ip), vehicle: saline with Tween-80) was 92 % of control and the T/C (dose: 512.0 mg/kg/injection, schedule: Q01DX001 (oral), vehicle: Klucel (hydroxypropylcellulose) (HPC)) was 90 % of control.

For `CCC1=C[C@H]2CN(CCc3c([nH]c4ccccc34)[C@@](C(=O)OC)(c3cc4c(cc3OC)N(C)[C@H]3[C@@](O)(C(=O)OC)[C@H](OC(C)=O)[C@]5(CC)C=CCN6CC[C@]43[C@@H]65)C2)C1`, the T/C runs as follows: (dose: 0.05 mg/kg/injection, schedule: Q01DX005 (ip), vehicle: saline) 100 % of control; (dose: 0.1 mg/kg/injection, schedule: Q01DX005 (ip), vehicle: saline) 108 % of control; (dose: 0.2 mg/kg/injection, schedule: Q01DX005 (ip), vehicle: saline) 110 % of control; (dose: 0.4 mg/kg/injection, schedule: Q01DX005 (ip), vehicle: saline) 103 % of control; (dose: 0.8 mg/kg/injection, schedule: Q01DX005 (ip), vehicle: saline) 102 % of control; (dose: 1.6 mg/kg/injection, schedule: Q01DX005 (ip), vehicle: saline) 105 % of control.

Take `C[C@@H](CN1CC(=O)NC(=O)C1)N1CC(=O)NC(=O)C1`: the T/C is 110 % of control (dose: 1.0 mg/kg/injection, schedule: Q01DX005 (ip), vehicle: water); 103 % of control (2×) and 118 % of control under setting [5]; 103 % of control (dose: 4.0 mg/kg/injection, schedule: Q01DX005 (ip), vehicle: saline with Tween-80); 106 % of control (dose: 4.0 mg/kg/injection, schedule: Q01DX005 (ip), vehicle: water); 104 % of control under setting [6]; 106 % of control and 112 % of control and 120 % of control under setting [2]. For the same molecule, the T/C by setting is: under setting [7], 108 % of control; (dose: 16.0 mg/kg/injection, schedule: Q01DX005 (ip), vehicle: water) 111 % of control; under setting [8], 112 % of control; under setting [9], 108 % of control and 111 % of control; under setting [4], 115 % of control and 121 % of control; under setting [10], 113 % of control. The T/C runs as follows: under setting [11], 119 % of control and 121 % of control; (dose: 64.0 mg/kg/injection, schedule: Q01DX005 (ip), vehicle: water) 116 % of control; under setting [12], 120 % of control.

As to `NC(C/[N+]([O-])=N/O)C(=O)O` (centres undefined), the T/C was 119 % of control (dose: 7.0 mg/kg/injection, schedule: Q01DX005 (ip), vehicle: saline); 119 % of control (dose: 14.0 mg/kg/injection, schedule: Q01DX005 (ip), vehicle: saline); 95 % of control (dose: 56.0 mg/kg/injection, schedule: Q01DX005 (ip), vehicle: saline).

As for `C[n+]1ccc(Nc2ccc(NC(=O)c3ccc(Nc4cc[n+](C)c5ccc(N)cc45)cc3)cc2)cc1`, the T/C was 95 % of control (dose: 1.0 mg/kg/injection, schedule: Q01DX005 (ip), vehicle: Klucel (hydroxypropylcellulose) (HPC)); 113 % of control (dose: 2.0 mg/kg/injection, schedule: Q01DX005 (ip), vehicle: Klucel (hydroxypropylcellulose) (HPC)); 108 % of control under setting [5]; 113 % of control under setting [1].

Take `O=C(N/N=C\c1cc(Br)cc(Br)c1O)N/N=C/c1cc(Br)cc(Br)c1O`: the T/C is, setting by setting: under setting [8], 88 % of control; under setting [10], 97 % of control; under setting [13], 88 % of control; (dose: 256.0 mg/kg/injection, schedule: Q01DX005 (ip), vehicle: saline with Tween-80) 93 % of control.

On to `Cc1c2cc[n+](C)cc2c(C)c2c1[nH]c1ccc(O)cc12`, for which the T/C is 100 % of control (dose: 0.12 mg/kg/injection, schedule: Q01DX005 (ip), vehicle: saline); 101 % of control and 112 % of control (dose: 0.25 mg/kg/injection, schedule: Q01DX005 (ip), vehicle: saline); 101 % of control (dose: 0.5 mg/kg/injection, schedule: Q01DX005 (ip), vehicle: saline).

In the case of `O=c1[nH]c(=O)n([C@H]2CCCO2)cc1F`, the T/C is 97 % of control and 98 % of control under setting [1]; 90 % of control and 97 % of control under setting [6]; 101 % of control and 111 % of control (dose: 8.0 mg/kg/injection, schedule: Q01DX005 (ip), vehicle: saline); 100 % of control and 106 % of control and 112 % of control under setting [2]; 103 % of control and 105 % of control under setting [7]; 100 % of control and 110 % of control (dose: 16.0 mg/kg/injection, schedule: Q01DX005 (ip), vehicle: saline). The T/C is 98 % of control and 109 % of control and 114 % of control under setting [3]; 102 % of control and 106 % of control under setting [8]; 102 % of control and 109 % of control (2×) under setting [9]; 100 % of control and 103 % of control and 108 % of control under setting [4]; 104 % of control and 120 % of control under setting [10]; 98 % of control and 111 % of control (2×) under setting [11]. Besides, the T/C (dose: 128.0 mg/kg/injection, schedule: Q01DX005 (ip), vehicle: Klucel (hydroxypropylcellulose) (HPC)) is 112 % of control and 117 % of control; the T/C under setting [13] was 111 % of control and 114 % of control; the T/C under setting [12] was 102 % of control and 113 % of control and 119 % of control; the T/C (dose: 256.0 mg/kg/injection, schedule: Q01DX005 (ip), vehicle: saline) is 106 % of control and 121 % of control.
